From patent publication US20250171457A1, “NITROGEN-CONTAINING HETEROCYCLIC COMPOUND HAVING NRF2 ACTIVATION EFFECT” (CHUGAI SEIYAKU KABUSHIKI KAISHA, priority 2022, published 2025)
pEC50: −log10 of the molar value.

Test system: Nrf2 transcriptional activity (pARE-Luc reporter) in HepG2 cells
Assay: In vitro Nrf2 transcriptional activity measurement by ARE-dependent reporter assay in HepG2 cell
Type: cell-based, human
Details: Homo sapiens; HepG2 cells transfected with pARE-Luc, 4 hours at 37° C.; luciferase activity of Example 1-54 or Example 17-23 at 3.75 μM defined as 100%
In short: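 HepG2 cells transfected with pGL4.37 (pARE-Luc), replated onto compound and incubated 4 h at 37° C; luciferase read by Bright-Glo luminescence. Response normalized to 100% set by a reference compound at 3.75 μM; EC50 from dose-response curve.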

SMILES	pEC50
COCCN1CCC(Oc2cc(Cl)c(C(=O)N3COc4c(cccc4-c4cc(N5CCOCC5)c(C(=O)O)cc4F)C3)c(Cl)c2)CC1 [Compound 4-47, 4-[3-[2,6-Dichloro-4-[1-(2-methoxyethyl)piperidin-4-yl]oxybenzoyl]-2,4-dihydro-1,3-benzoxazin-8-yl]-5-fluoro-2-morpholin-4-ylbenzoic acid]	8.48
O=C(O)c1cc(F)c(-c2cccc3c2OCN(C(=O)c2c(Cl)cc(OCCCCO)cc2Cl)C3)cc1N1CCOCC1 [Compound 4-51, 4-[3-[2,6-Dichloro-4-(4-hydroxybutoxy)benzoyl]-2,4-dihydro-1,3-benzoxazin-8-yl]-5-fluoro-2-morpholin-4-ylbenzoic acid]	8.59
CN1CCC(Oc2cc(Cl)c(C(=O)N3COc4c(cccc4-c4cc(N5CCOCC5)c(C(=O)O)cc4F)C3)c(Cl)c2)CC1 [Compound 4-52, 4-[3-[2,6-Dichloro-4-(1-methylpiperidin-4-yl)oxybenzoyl]-2,4-dihydro-1,3-benzoxazin-8-yl]-5-fluoro-2-morpholin-4-ylbenzoic acid]	8.96
CN1CCCC(Oc2cc(Cl)c(C(=O)N3COc4c(cccc4-c4cc(N5CCOCC5)c(C(=O)O)cc4F)C3)c(Cl)c2)C1 (centres unmarked) [Compound 4-53, 4-[3-[2,6-Dichloro-4-(1-methylpiperidin-3-yl)oxybenzoyl]-2,4-dihydro-1,3-benzoxazin-8-yl]-5-fluoro-2-morpholin-4-ylbenzoic acid]	8.54
CC1(N2CCN(c3cc(Cl)c(C(=O)N4COc5c(cccc5-c5cc(N6CCOCC6)c(C(=O)O)cc5F)C4)c(Cl)c3)CC2)COC1 [Compound 4-57, 4-[3-[2,6-Dichloro-4-[4-(3-methyloxetan-3-yl)piperazin-1-yl]benzoyl]-2,4-dihydro-1,3-benzoxazin-8-yl]-5-fluoro-2-morpholin-4-ylbenzoic acid]	8.32

The remaining lines, values ahead:

pEC50	SMILES
8.59	CN1CCC(COc2cc(Cl)c(C(=O)N3COc4c(cccc4-c4cc(N5CCOCC5)c(C(=O)O)cc4F)C3)c(Cl)c2)CC1 [Compound 4-48, 4-[3-[2,6-Dichloro-4-[(1-methylpiperidin-4-yl)methoxy]benzoyl]-2,4-dihydro-1,3-benzoxazin-8-yl]-5-fluoro-2-morpholin-4-ylbenzoic acid]
8.92	O=C(O)c1cc(F)c(-c2cccc3c2OCN(C(=O)c2c(Cl)cc(OCCCN4CCOCC4)cc2Cl)C3)cc1N1CCOCC1 [Compound 4-49, 4-[3-[2,6-Dichloro-4-(3-morpholin-4-ylpropoxy)benzoyl]-2,4-dihydro-1,3-benzoxazin-8-yl]-5-fluoro-2-morpholin-4-ylbenzoic acid]
8.55	CN1CC[C@@H](Oc2cc(Cl)c(C(=O)N3COc4c(cccc4-c4cc(N5CCOCC5)c(C(=O)O)cc4F)C3)c(Cl)c2)C1 [Compound 4-50, 4-[3-[2,6-Dichloro-4-[(3R)-1-methylpyrrolidin-3-yl]oxybenzoyl]-2,4-dihydro-1,3-benzoxazin-8-yl]-5-fluoro-2-morpholin-4-ylbenzoic acid]
8.92	CCOc1cc(Cl)c(C(=O)N2COc3c(cccc3-c3cc(N4CCOCC4)c(C(=O)O)cc3F)C2)cc1OC [Compound 4-54, 4-[3-(2-Chloro-4-ethoxy-5-methoxybenzoyl)-2,4-dihydro-1,3-benzoxazin-8-yl]-5-fluoro-2-morpholin-4-ylbenzoic acid]
8.70	COCCOc1cc(Cl)c(C(=O)N2COc3c(cccc3-c3cc(N4CCOCC4)c(C(=O)O)cc3F)C2)cc1OC [Compound 4-55, 4-[3-[2-Chloro-5-methoxy-4-(2-methoxyethoxy)benzoyl]-2,4-dihydro-1,3-benzoxazin-8-yl]-5-fluoro-2-morpholin-4-ylbenzoic acid]
8.72	COC1CC2(C1)CN(c1cc(Cl)c(C(=O)N3COc4c(cccc4-c4cc(N5CC6CCC(C5)O6)c(C(=O)O)cc4F)C3)c(Cl)c1)C2 [Compound 4-56, 4-[3-[2,6-Dichloro-4-(6-methoxy-2-azaspiro[3.3]heptan-2-yl)benzoyl]-2,4-dihydro-1,3-benzoxazin-8-yl]-5-fluoro-2-(8-oxa-3-azabicyclo[3.2.1]octan-3-yl)benzoic acid]
